{"source": "paper PMC7999318", "about": "(International Journal of Molecular Sciences, 2021)", "key": {"CYPs-HepG2 cells": {"tested_on": "CYPs-HepG2 cells", "conditions": "cited from earlier work"}, "wild-type HepG2 cells": {"tested_on": "wild-type HepG2 cells", "conditions": "cited from earlier work"}, "ELuc-HepG2 cells [1]": {"tested_on": "ELuc-HepG2 cells"}, "CYPs-ELuc-HepG2 cells [2]": {"tested_on": "CYPs-ELuc-HepG2 cells"}, "ELuc-HepG2 cells [3]": {"tested_on": "ELuc-HepG2 cells", "remark": "listed apart in the source"}, "CYPs-ELuc-HepG2 cells [4]": {"tested_on": "CYPs-ELuc-HepG2 cells", "remark": "listed apart in the source"}, "ELuc-HepG2 cells [5]": {"tested_on": "ELuc-HepG2 cells", "remark": "listed apart in the source"}, "CYPs-ELuc-HepG2 cells [6]": {"tested_on": "CYPs-ELuc-HepG2 cells", "remark": "listed apart in the source"}}, "data": [{"molecule": "COc1cc2c(c3oc4cccc(O)c4c(=O)c13)[C@@H]1C=CO[C@@H]1O2", "note": "[sterigmatocystin]", "values": [{"measurement": "cytotoxicity", "setting": "CYPs-HepG2 cells", "value": "showed cytotoxicity"}, {"measurement": "cytotoxicity", "setting": "wild-type HepG2 cells", "value": "not"}]}, {"molecule": "Nn1nnc2ccccc21", "note": "[ABT, 1-aminobenzotriazole]", "values": [{"measurement": "bioluminescence intensity", "setting": "ELuc-HepG2 cells [1]", "value": "not affected"}, {"measurement": "bioluminescence intensity", "setting": "CYPs-ELuc-HepG2 cells [2]", "value": "not affected"}]}, {"molecule": "OC[C@@H](O)[C@@H](O)[C@H](O)[C@H](O)CO", "note": "[D-mannitol]", "values": [{"measurement": "bioluminescence intensity", "setting": "ELuc-HepG2 cells [1]", "value": "no remarkable changes"}, {"measurement": "bioluminescence intensities during long-term culture", "setting": "CYPs-ELuc-HepG2 cells [2]", "value": "no significant changes"}, {"measurement": "bioluminescence intensity", "setting": "CYPs-ELuc-HepG2 cells [2]", "value": "no remarkable changes"}, {"measurement": "viability by WST-1 assay", "setting": "ELuc-HepG2 cells [3]", "value": "no remarkable changes"}, {"measurement": "viability by WST-1 assay", "setting": "CYPs-ELuc-HepG2 cells [4]", "value": "no remarkable changes"}]}, {"molecule": "CCCCCCCCCCCCOS(=O)(=O)[O-].[Na+]", "note": "[SDS, sodium dodecyl sulfate]", "values": [{"measurement": "concentration-response curves compared with ELuc-HepG2 cells (bioluminescence)", "setting": "CYPs-ELuc-HepG2 cells [2]; 3 days", "value": "very similar concentration-response curves"}]}, {"molecule": "aflatoxin B1", "values": [{"measurement": "bioluminescence intensity", "setting": "ELuc-HepG2 cells [1]", "value": "did not decrease"}, {"measurement": "IC50 values during long-term culture", "setting": "CYPs-ELuc-HepG2 cells [2]", "value": "almost unchanged"}, {"measurement": "aflatoxin B1 concentration-dependent decrease of bioluminescence intensity under CYP inhibitor", "setting": "CYPs-ELuc-HepG2 cells [2]", "value": "completely diminished"}, {"measurement": "bioluminescence intensity", "setting": "CYPs-ELuc-HepG2 cells [2]", "value": "concentration-dependent decrease"}, {"measurement": "bioluminescence intensity in real time", "setting": "ELuc-HepG2 cells [5]", "value": "no decrease"}, {"measurement": "first IC50 value", "setting": "ELuc-HepG2 cells [5]", "value": "not observed"}, {"measurement": "bioluminescence intensity in real time", "setting": "CYPs-ELuc-HepG2 cells [6]", "value": "time- and concentration-dependent decreases"}, {"measurement": "decrease of bioluminescence intensity under CYP3A4 inhibitor", "setting": "CYPs-ELuc-HepG2 cells [6]", "value": "partially diminished"}, {"measurement": "IC50", "setting": "CYPs-ELuc-HepG2 cells [6]; read-out: first IC50 value", "value": 7.9, "unit": "µM"}, {"measurement": "cytotoxicity", "setting": "CYPs-HepG2 cells", "value": "showed cytotoxicity"}, {"measurement": "cytotoxicity", "setting": "wild-type HepG2 cells", "value": "not"}]}, {"molecule": "COc1cc(NC(C)CCCN)c2ncccc2c1", "note": "(centres unmarked) [primaquine]", "values": [{"measurement": "bioluminescence intensity in real time", "setting": "ELuc-HepG2 cells [5]", "value": "Time- and concentration-dependent decreases"}, {"measurement": "time at which the first IC50 value was noted", "setting": "ELuc-HepG2 cells [5]", "value": 22, "unit": "h"}, {"measurement": "bioluminescence intensity in real time", "setting": "CYPs-ELuc-HepG2 cells [6]", "value": "much faster decrease"}, {"measurement": "decrease of bioluminescence intensity under CYP2D6 inhibitor", "setting": "CYPs-ELuc-HepG2 cells [6]", "value": "partially abolished"}, {"measurement": "time at which the first IC50 value was noted", "setting": "CYPs-ELuc-HepG2 cells [6]", "value": 12, "unit": "h"}]}]}
